# Target: T1, Toll-like receptor 7 (Homo sapiens, UniProt Q9NYK1)
# T1 sequence (Q9NYK1 whole entry): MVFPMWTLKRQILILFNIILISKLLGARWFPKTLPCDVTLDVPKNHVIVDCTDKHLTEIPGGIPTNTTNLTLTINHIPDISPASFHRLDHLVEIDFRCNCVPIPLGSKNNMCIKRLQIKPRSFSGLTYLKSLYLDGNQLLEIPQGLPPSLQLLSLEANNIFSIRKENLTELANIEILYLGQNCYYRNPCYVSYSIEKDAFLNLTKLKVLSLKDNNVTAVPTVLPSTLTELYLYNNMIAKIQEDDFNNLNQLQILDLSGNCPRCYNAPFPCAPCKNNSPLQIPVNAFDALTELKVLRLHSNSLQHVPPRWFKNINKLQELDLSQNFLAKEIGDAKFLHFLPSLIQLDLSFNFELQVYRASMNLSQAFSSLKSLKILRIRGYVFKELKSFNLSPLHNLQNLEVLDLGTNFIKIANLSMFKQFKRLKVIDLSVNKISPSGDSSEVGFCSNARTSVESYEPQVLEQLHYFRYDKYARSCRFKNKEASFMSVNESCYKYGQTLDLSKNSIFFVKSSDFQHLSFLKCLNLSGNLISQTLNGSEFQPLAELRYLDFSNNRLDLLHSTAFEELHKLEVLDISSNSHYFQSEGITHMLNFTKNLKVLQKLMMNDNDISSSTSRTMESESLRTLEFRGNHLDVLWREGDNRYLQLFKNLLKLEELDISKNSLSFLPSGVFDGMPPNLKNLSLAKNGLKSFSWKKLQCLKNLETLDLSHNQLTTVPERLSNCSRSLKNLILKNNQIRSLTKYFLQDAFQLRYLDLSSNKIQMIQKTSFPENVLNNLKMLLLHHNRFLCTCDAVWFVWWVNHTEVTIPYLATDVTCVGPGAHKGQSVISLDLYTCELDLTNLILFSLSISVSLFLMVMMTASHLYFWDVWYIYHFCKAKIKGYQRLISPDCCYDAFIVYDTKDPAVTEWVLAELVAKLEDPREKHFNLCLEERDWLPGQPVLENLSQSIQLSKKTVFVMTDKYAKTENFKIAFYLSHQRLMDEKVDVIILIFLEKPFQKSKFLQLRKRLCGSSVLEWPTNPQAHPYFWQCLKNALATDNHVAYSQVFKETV
# Test: HEK Reporter Assay
# Description: HEK293 reporter cells expressing human TLR7 or human TLR8 were purchased from Invivogen and vendor protocols were followed for cellular propagation and experimentation. Briefly, cells were grown to 80-85% confluence at 5% CO2 in DMEM supplemented with 10% FBS, Zeocin, and Blasticidin. Cells were then seeded in 96-well flat plates at 4×10^4 cells/well with substrate containing HEK detection medium and immunostimulatory molecules. Activity was measured using a plate reader at 620-655 nm wavelength.
compound,measurement,value
"CCCNC(=O)C1=Cc2ccc(-c3cnc(CN)nc3)cc2N=C(N)C1 [US20240033370, Hx No. CycBz-5]",EC50,35 nM

# Source: BindingDB's records for patent US20240033370 (Bolt Biotherapeutics, 2024)
